Several values for one entry are separate records, joined by “and”; a condition that tells them apart may be missing. Equal entries are not always repeated.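 Assay format: 96-well plates, 48-hour exposure. GI50 is the concentration that inhibits growth by half. Definition used: TGI = concentration required for complete inhibition of growth.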

The test system of the first assay is MALME-3M melanoma. The assay is described as follows: inhibition of tumour cell growth, NCI panel, 48 h.
Turning to `c1cnn2ncc(-c3ccnc(Nc4ccc5c(c4)OCCO5)n3)c2c1`, the GI50 was 0.0833 µM and the TGI is 0.276 µM.

In the case of `Cc1ccc(-n2nc(C(C)(C)C)cc2NC(=O)NCc2cc(F)ccc2Oc2ccc3c(cnn3CCO)c2)cc1`, the GI50 is 0.396 µM and 0.305 µM; the TGI is > 10 µM and 1.73 µM.

The molecule `COc1ccc2[nH]c(-c3ccc(O)cc3)cc(=O)c2c1` showed a TGI greater than 29.1 µM.

Regarding `COc1ccc2c(NCCCCCCNc3c4ccccc4nc4cc(OC)ccc34)c3ccccc3nc2c1`, the TGI is 2.55 µM.

As to `O=C1c2cccc3cccc(c23)C(=O)N1O`, the TGI is greater than 100 µM.

The molecule `O=C(O)c1ccccc1C(=O)c1ccc2c(c1)Cc1ccccc1-2` displayed a TGI greater than 100 µM.

`C=CC1=C(C)C2=NC1=CC1=NC(=CC3=C(C)C4=C(O)[C@H](C(=O)OC)C(=C5NC(=C2)[C@@H](C)[C@@H]5CCC(=O)O)C4=N3)C(CC)=C1C` came in with a TGI greater than 100 µM.

As for `COc1ccc(Nc2nccc(N3CCN(c4c5ccc(Cl)cc5nc5ccc(OC)cc45)CC3)n2)cc1`, the GI50 was 92 µM and the TGI was greater than 100 µM.

For the molecule `CC(=Nc1ccc(S(N)(=O)=O)cc1)c1c(O)[nH]c2ccccc12`, the GI50 is greater than 25 µM and the TGI was greater than 25 µM.

Take `CCn1c(-c2nonc2N)nc2ccncc21`: the GI50 was greater than 25 µM and the TGI was greater than 25 µM.

For the molecule `CC(C)[O-].CC(C)[O-].CN(CCN(C)Cc1cc(F)cc(F)c1[O-])Cc1cc(F)cc(F)c1[O-].[Ti+4]`, the GI50 was 0.379 µM and the TGI is 1.43 µM.

On to `O=C1/C(=C/c2ccc([N+](=O)[O-])cc2)COc2ccc(O)cc21`, for which the GI50 was 13.9 µM and the TGI was found to be 75.2 µM.

In the case of `CC(C)Oc1ccc(C(=O)Cn2ccnc2)cc1-n1c(CN2CCN(C(=O)COc3ccc(Cl)cc3)CC2)nc2ccccc2c1=O`, the GI50 was 12.5 µM and the TGI was determined as 30.3 µM.

Turning to `COc1cccc(COc2cc(-n3cnc4ccccc43)sc2C(N)=O)c1`, the GI50 was greater than 25 µM and the TGI was greater than 25 µM.

Take `CCN(CC)c1ccc(/C=C/C2=[N+](C)c3ccccc3C2(C)C)c(C)c1`: the GI50 was 0.155 µM and the TGI worked out at 1.09 µM.

Turning to `Fc1ccc2nc(-c3cc(-c4ccc5c(c4)OCO5)n[nH]3)[nH]c2c1`, the GI50 was 2.75 µM and the TGI was greater than 100 µM.

The subject of a further assay is OVCAR-8 ovarian. The assay is described as follows: inhibition of tumour cell growth, NCI panel, 48 h.
Consider `c1cnn2ncc(-c3ccnc(Nc4ccc5c(c4)OCCO5)n3)c2c1`, for which the GI50 is 0.0687 µM and the TGI was greater than 25 µM.

As for `Cc1ccc(-n2nc(C(C)(C)C)cc2NC(=O)NCc2cc(F)ccc2Oc2ccc3c(cnn3CCO)c2)cc1`, the GI50 is > 10 µM and 8.96 µM; the TGI was greater than 100 µM.

Turning to `COc1ccc2[nH]c(-c3ccc(O)cc3)cc(=O)c2c1`, the TGI came to 13.1 µM.

For the molecule `COc1ccc2c(NCCCCCCNc3c4ccccc4nc4cc(OC)ccc34)c3ccccc3nc2c1`, the TGI was found to be 11 µM.

The molecule `O=C1c2cccc3cccc(c23)C(=O)N1O` came in with a TGI greater than 100 µM.

`O=C(O)c1ccccc1C(=O)c1ccc2c(c1)Cc1ccccc1-2` showed a TGI greater than 100 µM.

As to `C=CC1=C(C)C2=NC1=CC1=NC(=CC3=C(C)C4=C(O)[C@H](C(=O)OC)C(=C5NC(=C2)[C@@H](C)[C@@H]5CCC(=O)O)C4=N3)C(CC)=C1C`, the TGI is greater than 100 µM.

Turning to `COc1ccc(Nc2nccc(N3CCN(c4c5ccc(Cl)cc5nc5ccc(OC)cc45)CC3)n2)cc1`, the GI50 was 6.53 µM and the TGI was greater than 100 µM.

Consider `CC(=Nc1ccc(S(N)(=O)=O)cc1)c1c(O)[nH]c2ccccc12`, for which the GI50 was greater than 25 µM and the TGI was greater than 25 µM.

On to `CCn1c(-c2nonc2N)nc2ccncc21`, for which the GI50 is greater than 25 µM and the TGI was greater than 25 µM.

`CC(C)[O-].CC(C)[O-].CN(CCN(C)Cc1cc(F)cc(F)c1[O-])Cc1cc(F)cc(F)c1[O-].[Ti+4]`: the GI50 was 1.09 µM and the TGI amounted to 6.55 µM.

As to `O=C1/C(=C/c2ccc([N+](=O)[O-])cc2)COc2ccc(O)cc21`, the GI50 was 5.88 µM and the TGI was greater than 100 µM.

Take `CC(C)Oc1ccc(C(=O)Cn2ccnc2)cc1-n1c(CN2CCN(C(=O)COc3ccc(Cl)cc3)CC2)nc2ccccc2c1=O`: the GI50 is 15.5 µM and the TGI was 53.2 µM.

Turning to `COc1cccc(COc2cc(-n3cnc4ccccc43)sc2C(N)=O)c1`, the GI50 is 11.9 µM and the TGI is greater than 25 µM.

In the case of `CCN(CC)c1ccc(/C=C/C2=[N+](C)c3ccccc3C2(C)C)c(C)c1`, the GI50 was 0.0629 µM and the TGI came to 3.12 µM.

As for `Fc1ccc2nc(-c3cc(-c4ccc5c(c4)OCO5)n[nH]3)[nH]c2c1`, the GI50 was 2.99 µM and the TGI amounted to 16 µM.

In the next assay the test system is SW-620 colon. The assay is described as follows: inhibition of tumour cell growth, NCI panel, 48 h.
In the case of `c1cnn2ncc(-c3ccnc(Nc4ccc5c(c4)OCCO5)n3)c2c1`, the GI50 is 0.0786 µM and the TGI amounted to 0.383 µM.

On to `Cc1ccc(-n2nc(C(C)(C)C)cc2NC(=O)NCc2cc(F)ccc2Oc2ccc3c(cnn3CCO)c2)cc1`, for which the GI50 was > 10 µM and 6.34 µM; the TGI is greater than 100 µM.

As to `COc1ccc2[nH]c(-c3ccc(O)cc3)cc(=O)c2c1`, the TGI is greater than 100 µM.

In the case of `COc1ccc2c(NCCCCCCNc3c4ccccc4nc4cc(OC)ccc34)c3ccccc3nc2c1`, the TGI was found to be 1.08 µM.

For the molecule `O=C1c2cccc3cccc(c23)C(=O)N1O`, the TGI is greater than 100 µM.

`O=C(O)c1ccccc1C(=O)c1ccc2c(c1)Cc1ccccc1-2`: the TGI is greater than 100 µM.

The molecule `C=CC1=C(C)C2=NC1=CC1=NC(=CC3=C(C)C4=C(O)[C@H](C(=O)OC)C(=C5NC(=C2)[C@@H](C)[C@@H]5CCC(=O)O)C4=N3)C(CC)=C1C` returned a TGI of 10.8 µM.

Turning to `COc1ccc(Nc2nccc(N3CCN(c4c5ccc(Cl)cc5nc5ccc(OC)cc45)CC3)n2)cc1`, the GI50 is 7.19 µM and the TGI is greater than 100 µM.

`CC(=Nc1ccc(S(N)(=O)=O)cc1)c1c(O)[nH]c2ccccc12`: the GI50 is greater than 18.5 µM and the TGI was greater than 25 µM.

Regarding `CCn1c(-c2nonc2N)nc2ccncc21`, the GI50 is greater than 25 µM and the TGI is greater than 25 µM.

In the case of `CC(C)[O-].CC(C)[O-].CN(CCN(C)Cc1cc(F)cc(F)c1[O-])Cc1cc(F)cc(F)c1[O-].[Ti+4]`, the GI50 is 0.828 µM and the TGI was 3.3 µM.

On to `O=C1/C(=C/c2ccc([N+](=O)[O-])cc2)COc2ccc(O)cc21`, for which the GI50 is 1.5 µM and the TGI came to 3.3 µM.

For `CC(C)Oc1ccc(C(=O)Cn2ccnc2)cc1-n1c(CN2CCN(C(=O)COc3ccc(Cl)cc3)CC2)nc2ccccc2c1=O`, the GI50 is 13.4 µM and the TGI was determined as 50.9 µM.

As for `COc1cccc(COc2cc(-n3cnc4ccccc43)sc2C(N)=O)c1`, the GI50 was greater than 11.1 µM and the TGI is greater than 25 µM.

With `CCN(CC)c1ccc(/C=C/C2=[N+](C)c3ccccc3C2(C)C)c(C)c1`, the GI50 is 0.0703 µM and the TGI is 12.8 µM.

`Fc1ccc2nc(-c3cc(-c4ccc5c(c4)OCO5)n[nH]3)[nH]c2c1`: the GI50 is 5.68 µM and the TGI was greater than 43.1 µM.

Another assay deals with U251 CNS. The assay is described as follows: inhibition of tumour cell growth, NCI panel, 48 h.
With `c1cnn2ncc(-c3ccnc(Nc4ccc5c(c4)OCCO5)n3)c2c1`, the GI50 is 0.0778 µM and the TGI came to 2.69 µM.

With `Cc1ccc(-n2nc(C(C)(C)C)cc2NC(=O)NCc2cc(F)ccc2Oc2ccc3c(cnn3CCO)c2)cc1`, the GI50 is > 10 µM and 7.01 µM; the TGI is greater than 100 µM.

`COc1ccc2[nH]c(-c3ccc(O)cc3)cc(=O)c2c1`: the TGI amounted to 9.29 µM.

Take `COc1ccc2c(NCCCCCCNc3c4ccccc4nc4cc(OC)ccc34)c3ccccc3nc2c1`: the TGI was 1.47 µM.

`O=C1c2cccc3cccc(c23)C(=O)N1O` gave a TGI greater than 100 µM.

On to `O=C(O)c1ccccc1C(=O)c1ccc2c(c1)Cc1ccccc1-2`, for which the TGI is greater than 100 µM.

In the case of `C=CC1=C(C)C2=NC1=CC1=NC(=CC3=C(C)C4=C(O)[C@H](C(=O)OC)C(=C5NC(=C2)[C@@H](C)[C@@H]5CCC(=O)O)C4=N3)C(CC)=C1C`, the TGI is greater than 41.2 µM.

As to `COc1ccc(Nc2nccc(N3CCN(c4c5ccc(Cl)cc5nc5ccc(OC)cc45)CC3)n2)cc1`, the GI50 was 4.36 µM and the TGI was greater than 100 µM.

As for `CC(=Nc1ccc(S(N)(=O)=O)cc1)c1c(O)[nH]c2ccccc12`, the GI50 was greater than 25 µM and the TGI was greater than 25 µM.

For `CCn1c(-c2nonc2N)nc2ccncc21`, the GI50 was greater than 25 µM and the TGI was greater than 25 µM.

For `CC(C)[O-].CC(C)[O-].CN(CCN(C)Cc1cc(F)cc(F)c1[O-])Cc1cc(F)cc(F)c1[O-].[Ti+4]`, the GI50 is 0.438 µM and the TGI is 1.83 µM.

In the case of `O=C1/C(=C/c2ccc([N+](=O)[O-])cc2)COc2ccc(O)cc21`, the GI50 is 1.99 µM and the TGI is 4.13 µM.

As for `CC(C)Oc1ccc(C(=O)Cn2ccnc2)cc1-n1c(CN2CCN(C(=O)COc3ccc(Cl)cc3)CC2)nc2ccccc2c1=O`, the GI50 is 13.2 µM and the TGI came to 30.2 µM.

As for `COc1cccc(COc2cc(-n3cnc4ccccc43)sc2C(N)=O)c1`, the GI50 is greater than 13.6 µM and the TGI was greater than 25 µM.

Consider `CCN(CC)c1ccc(/C=C/C2=[N+](C)c3ccccc3C2(C)C)c(C)c1`, for which the GI50 is 0.0364 µM and the TGI came out at 2.54 µM.

On to `Fc1ccc2nc(-c3cc(-c4ccc5c(c4)OCO5)n[nH]3)[nH]c2c1`, for which the GI50 was 2.49 µM and the TGI is greater than 35.8 µM.

The subject of the next assay is OVCAR-5 ovarian. The assay is described as follows: inhibition of tumour cell growth, NCI panel, 48 h.
Turning to `c1cnn2ncc(-c3ccnc(Nc4ccc5c(c4)OCCO5)n3)c2c1`, the GI50 was 0.0866 µM and the TGI was greater than 25 µM.

Turning to `Cc1ccc(-n2nc(C(C)(C)C)cc2NC(=O)NCc2cc(F)ccc2Oc2ccc3c(cnn3CCO)c2)cc1`, the GI50 is > 10 µM and 1.89 µM; the TGI is greater than 31.6 µM.

Turning to `COc1ccc2[nH]c(-c3ccc(O)cc3)cc(=O)c2c1`, the TGI was greater than 82.8 µM.

In turn, `COc1ccc2c(NCCCCCCNc3c4ccccc4nc4cc(OC)ccc34)c3ccccc3nc2c1` registered a TGI of 1.89 µM.

Take `O=C1c2cccc3cccc(c23)C(=O)N1O`: the TGI was greater than 100 µM.

As to `O=C(O)c1ccccc1C(=O)c1ccc2c(c1)Cc1ccccc1-2`, the TGI is greater than 100 µM.

Molecule `C=CC1=C(C)C2=NC1=CC1=NC(=CC3=C(C)C4=C(O)[C@H](C(=O)OC)C(=C5NC(=C2)[C@@H](C)[C@@H]5CCC(=O)O)C4=N3)C(CC)=C1C` came in with a TGI greater than 23.7 µM.

As to `COc1ccc(Nc2nccc(N3CCN(c4c5ccc(Cl)cc5nc5ccc(OC)cc45)CC3)n2)cc1`, the GI50 was greater than 100 µM and the TGI is greater than 100 µM.

`CC(=Nc1ccc(S(N)(=O)=O)cc1)c1c(O)[nH]c2ccccc12`: the GI50 was greater than 25 µM and the TGI was greater than 25 µM.

For the molecule `CCn1c(-c2nonc2N)nc2ccncc21`, the GI50 was greater than 25 µM and the TGI was greater than 25 µM.

With `CC(C)[O-].CC(C)[O-].CN(CCN(C)Cc1cc(F)cc(F)c1[O-])Cc1cc(F)cc(F)c1[O-].[Ti+4]`, the GI50 was 1.51 µM and the TGI was 8.78 µM.

With `O=C1/C(=C/c2ccc([N+](=O)[O-])cc2)COc2ccc(O)cc21`, the GI50 is 5.97 µM and the TGI worked out at 33.2 µM.

Consider `CC(C)Oc1ccc(C(=O)Cn2ccnc2)cc1-n1c(CN2CCN(C(=O)COc3ccc(Cl)cc3)CC2)nc2ccccc2c1=O`, for which the GI50 was 17.6 µM and the TGI came to 42.4 µM.

For `COc1cccc(COc2cc(-n3cnc4ccccc43)sc2C(N)=O)c1`, the GI50 was 14.2 µM and the TGI is greater than 25 µM.

Take `CCN(CC)c1ccc(/C=C/C2=[N+](C)c3ccccc3C2(C)C)c(C)c1`: the GI50 was 0.128 µM and the TGI turned out to be 16.8 µM.

On to `Fc1ccc2nc(-c3cc(-c4ccc5c(c4)OCO5)n[nH]3)[nH]c2c1`, for which the GI50 is 35.5 µM and the TGI was greater than 100 µM.
